Experimental data reported in patent US12649735B2 (HAIHE BIOPHARMA CO., LTD., priority 2019, dated 2026).

Experiments:
[1] = tested on: BRD4-BD2; settings: cited from earlier work
[2] = tested on: acute leukemia tumors; settings: mice, administered orally, 60 mg/kg per day; cited from earlier work
[3] = molecular target: T1, bromodomain protein BRD4 BD2 (Homo sapiens, UniProt O60885); test: HTRF in vitro assay, inhibitory activity against BRD4 BD2; type: binding; settings: BRD4(2) 30 nM in final system
T1 construct: The proteins BRD4 BD1/BD2 used in the experiment were purchased from Active Motif Company (Cat. No. 31380/31446); purchased Active Motif 31446
Protocol: (§1) The inhibitory activity of the compound against BRD4 BD1 was determined by using Homogeneous Time-Resolved Fluorescence (HTRF).
(§2) The proteins BRD4 BD1/BD2 used in the experiment were purchased from Active Motif Company (Cat. No. 31380/31446); Streptavidin XL-665 (#610SAXLA) and EPIgeneous Binding Domain Kit A (#62BDAPEG) were purchased from Cisbio Bioassays Company, [Lys(5,8,12,16)Ac]H4(1-21)-biotin (#64989), and [Lys(5,8,12,16)Ac]H4(1-25) were products of AnaSpec company; OTX015 and ABBV-075 were purchased from SelleckChem. 384 Well ProxiPlate (#6008280) was purchased from PerkinElmer. The multifunctional microplate reader used for the experimental was a product of PerkinElmer, model: Envision 2104. The experimental water was Millipore-Q pure water.
(§3) 10 mM of stock solution of compound in DMSO was diluted to 1 mM with DMSO and stored, and then diluted 10 times with Binding Domain dilution buffer (purchased from Cisbio Bioassays) for use (the concentration of DMSO in the final system was […]), 1:5 gradient dilution, a total of 5 concentrations.
(§4) 4. Test Method: 1 Batch, 2 Duplicate Wells
(§5) • 1) 5 μL of test compound was transferred to 45 μL of Binding Domain dilution buffer. • 2) 2 μL of 10× compound (4 μL Binding Domain dilution buffer: positive control; 6 μL enzyme buffer (purchased from Cisbio Bioassays): negative control) was transferred to the reaction plate. • 3) 4 μL of 5×BRD4(1) or BRD4(2) (30 nM in final system) was added to the reaction plate. • 4) 4 μL of 5×[Lys(5,8,12,16)Ac]H4(1-21)-biotin was added to the reaction plate, and the plate was covered with a film, and incubated at 37° C. for 30 min. • 5) A detection mixture of SA-XL665 (2×) and anti-H3K9me0-Eu(K) (2×) was prepared in detection buffer (purchased from Cisbio Bioassays). • 6) 10 μL of detection mixture (2×) was added to each well, and incubated for 3 h at room temperature, and the mp value was read using a multi-plate reader Envision. The parameters were set as follows.

[4] = molecular target: T2, bromodomain protein BRD4 BD1 (Homo sapiens, UniProt O60885); test: HTRF in vitro assay, inhibitory activity against BRD4 BD1; type: binding; settings: BRD4(1) 30 nM in final system
T2 construct: The proteins BRD4 BD1/BD2 used in the experiment were purchased from Active Motif Company (Cat. No. 31380/31446); purchased Active Motif 31380
Protocol: In this example, the half inhibitory activity (IC50) of the compounds of the present invention against the bromodomain protein BRD4 BD1 was determined.
as §1, §2, §3, §4, §5

Row | IC50 [3] [nM] | IC50 [4] [nM] | Compound | selectivity (BD2/BD1) [1] [times] | inhibits acute leukemia tumors [2] [%]
1 | – | – | CCNC(=O)c1cc2c(-c3cc(C(C)(C)O)ccc3Oc3c(C)cc(F)cc3C)cn(C)c(=O)c2[nH]1 [Abbv744] | > 100 | –
2 | – | – | Cc1noc2c1-c1ccccc1C(c1ccc(Cl)cc1)=N[C@H]2CC(N)=O [CPI-0610] | – | 41
3 | ≤ 10 | 100 to 1000 | CC(c1ccccc1)c1cn(C)c(=O)c2cc(-c3n[nH]cc3N)oc12 (stereo not drawn) [Compound A58, 2-(4-amino-1H-pyrazol-3-yl)-5-methyl-7-(1-phenethyl)furo[3,2-c]pyridin-4(5H)-one] | – | –
4 | 10 to 100 | 100 to 1000 | Cn1ccc(NC(=O)c2cc3c(-c4nc5ncccc5n4-c4ccccc4)cn(C)c(=O)c3[nH]2)n1 [Compound A53] | – | –
5 | 10 to 100 | 100 to 1000 | CCNC(=O)c1cc2c(C(O)c3ccc4c(ccn4C)c3)cn(C)c(=O)c2[nH]1 (stereo not drawn) [Compound A39, N-ethyl-4-(hydroxy(1-methyl-1H-indol-5-yl)methyl)-6-methyl-7-oxo-6,7-dihydro-1H-pyrrolo[2,3-c]pyridin-2-carboxamide] | – | –
6 | 10 to 100 | 100 to 1000 | 4-diphenylmethyl-N-ethylamino-6-methyl-7-oxo-6,7-dihydro-1H-pyrrolo[2,3-c]pyridin-2-carboxamide [Compound A29] | – | –
7 | 10 to 100 | 100 to 1000 | Cc1ccc(-c2cn(C)nc2-c2cn(C)c(=O)c3[nH]c(C(=O)Nc4cn[nH]c4)cc23)cc1 [Compound A56, 6-methyl-4-(1-methyl-4-(p-tolyl)-1H-pyrazol-3-yl)-7-oxo-N-(1H-pyrazol-4-yl)-6,7-dihydro-1H-pyrrolo[2,3-c]pyridin-2-carboxamide] | – | –
8 | 10 to 100 | 100 to 1000 | COc1ccc(C(c2ccccc2)c2cn(C)c(=O)c3[nH]c(C(=O)Nc4cnn(C)c4)cc23)cc1 (stereo not drawn) [Compound A38, 4-((4-methoxyphenyl)(phenyl)methyl)-6-methyl-N-(1-methyl-1H-pyrazol-4-yl)-7-oxo-6,7-dihydro-1H-pyrrolo[2,3-c]pyridin-2-carboxamide] | – | –
9 | ≤ 10 | 10 to 100 | CCNC(=O)c1cc2c(-c3cc(C(C)(C)O)c4cccnc4c3C)cn(C)c(=O)c2[nH]1 [Compound A40, N-ethyl-4-(5-(2-hydroxypropan-2-yl)-8-methylquinolin-7-yl)-6-methyl-7-oxo-6,7-dihydro-1H-pyrrolo[2,3-c]pyridin-2-carboxamide] | – | –
10 | 10 to 100 | 100 to 1000 | CCNC(=O)n1cc2c(C(OC)c3ccccc3)cn(C)c(=O)c2c1 (stereo not drawn) [Compound A4, N-ethyl-7-(methoxy(phenyl)methyl)-5-methyl-4-oxo-4,5-dihydro-2H-pyrrolo[3,4-c]pyridin-2-carboxamide] | – | –
